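Compound exposure: 48 hours, 5 concentrations, 96-well plates. Definition used: TGI = concentration required for complete inhibition of growth.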
Columns and labels:
Experiment in all cases: DTP human tumour cell line panel, 48 h
[1] = tested on: A498 renal
[2] = tested on: A549 NSCLC
[3] = tested on: ACHN renal
[4] = tested on: CCRF-CEM leukemia
[5] = tested on: COLO 205 colon
[6] = tested on: DLD-1 colon
[7] = tested on: DMS 114 small cell lung
[8] = tested on: DMS 273 small cell lung
[9] = tested on: EKVX NSCLC
[10] = tested on: HCC-2998 colon
[11] = tested on: HCT-116 colon
[12] = tested on: HCT-15 colon
[13] = tested on: HL-60(TB) leukemia
[14] = tested on: HOP-62 NSCLC
[15] = tested on: HOP-92 NSCLC
[16] = tested on: HT29 colon
[17] = tested on: IGROV1 ovarian
[18] = tested on: KM12 colon
[19] = tested on: KM20L2 colon
[20] = tested on: LOX IMVI melanoma
[21] = tested on: LXFL 529 NSCLC
[22] = tested on: M14 melanoma
[23] = tested on: M19-MEL melanoma
[24] = tested on: MALME-3M melanoma
[25] = tested on: MOLT-4 leukemia
[26] = tested on: NCI-H226 lung
[27] = tested on: NCI-H23 lung
[28] = tested on: NCI-H460 lung
[29] = tested on: NCI-H522 lung
[30] = tested on: OVCAR-3 ovarian
[31] = tested on: OVCAR-4 ovarian
[32] = tested on: OVCAR-5 ovarian
[33] = tested on: OVCAR-8 ovarian
[34] = tested on: RPMI-8226 leukemia
[35] = tested on: RXF 393 renal
[36] = tested on: SF-268 CNS
[37] = tested on: SF-295 CNS
[38] = tested on: SF-539 CNS
[39] = tested on: SK-MEL-2 melanoma
[40] = tested on: SK-MEL-28 melanoma
[41] = tested on: SK-MEL-5 melanoma
[42] = tested on: SK-OV-3 ovarian
[43] = tested on: SN12C renal
[44] = tested on: SNB-19 CNS
[45] = tested on: SNB-75 CNS
[46] = tested on: SNB-78 CNS
[47] = tested on: SR leukemia
[48] = tested on: SW-620 colon
[49] = tested on: TK-10 renal
[50] = tested on: U251 CNS
[51] = tested on: UACC-257 melanoma
[52] = tested on: UACC-62 melanoma
[53] = tested on: XF 498 CNS
[54] = tested on: 786-0 renal
[55] = tested on: BT-549 breast
[56] = tested on: CAKI-1 renal
[57] = tested on: DU-145 prostate
[58] = tested on: HS 578T breast
[59] = tested on: K-562 leukemia
[60] = tested on: MCF7 breast
[61] = tested on: MDA-MB-231 breast
[62] = tested on: MDA-MB-435
[63] = tested on: MDA-N
[64] = tested on: NCI/ADR-RES ovarian
[65] = tested on: PC-3 prostate
[66] = tested on: T-47D breast
[67] = tested on: UO-31 renal
[68] = tested on: HOP-18 NSCLC

Q: How did the TGI [1] turn out when `CN(CCO)/N=N/c1nc[nH]c1C(N)=O` was run?
A: The TGI was over 100 µM.

Q: And the TGI [2]?
A: Its TGI is over 100 µM.

Q: And the TGI [3]?
A: The TGI was over 100 µM.

Q: What about the TGI [4] of the same compound?
A: Its TGI is over 100 µM.

Q: And the TGI [5]?
A: The TGI was over 100 µM.

Q: And the TGI [6]?
A: The TGI was over 100 µM.

Q: What about the TGI [7] of the same compound?
A: The TGI was over 100 µM.

Q: And the TGI [8]?
A: Its TGI is over 100 µM.

Q: What about the TGI [9] of the same compound?
A: The TGI was over 100 µM.

Q: What about the TGI [10] of the same compound?
A: The TGI was over 100 µM.

Q: What about the TGI [11] of the same compound?
A: Its TGI is over 100 µM.

Q: What about the TGI [12] of the same compound?
A: The TGI was over 100 µM.

Q: And the TGI [13]?
A: The TGI was over 100 µM.

Q: What about the TGI [14] of the same compound?
A: Its TGI is over 100 µM.

Q: What about the TGI [15] of the same compound?
A: Its TGI is over 100 µM.

Q: And the TGI [16]?
A: The TGI was over 100 µM.

Q: And the TGI [17]?
A: The TGI was over 100 µM.

Q: And the TGI [18]?
A: Its TGI is over 100 µM.

Q: And the TGI [19]?
A: Its TGI is over 100 µM.

Q: And the TGI [20]?
A: The TGI was over 100 µM.

Q: And the TGI [21]?
A: Its TGI is over 100 µM.

Q: What about the TGI [22] of the same compound?
A: Its TGI is over 100 µM.

Q: And the TGI [23]?
A: The TGI was over 100 µM.

Q: What about the TGI [24] of the same compound?
A: The TGI was over 100 µM.

Q: What about the TGI [25] of the same compound?
A: Its TGI is over 100 µM.

Q: What about the TGI [26] of the same compound?
A: The TGI was over 100 µM.

Q: What about the TGI [27] of the same compound?
A: The TGI was over 100 µM.

Q: And the TGI [28]?
A: The TGI was over 100 µM.

Q: What about the TGI [29] of the same compound?
A: Its TGI is over 100 µM.

Q: And the TGI [30]?
A: Its TGI is over 100 µM.

Q: And the TGI [31]?
A: Its TGI is over 100 µM.

Q: And the TGI [32]?
A: The TGI was over 100 µM.

Q: And the TGI [33]?
A: Its TGI is over 100 µM.

Q: What about the TGI [34] of the same compound?
A: The TGI was over 100 µM.

Q: And the TGI [35]?
A: The TGI was over 100 µM.

Q: And the TGI [36]?
A: The TGI was over 100 µM.

Q: What about the TGI [37] of the same compound?
A: Its TGI is over 100 µM.

Q: And the TGI [38]?
A: The TGI was over 100 µM.

Q: What about the TGI [39] of the same compound?
A: Its TGI is over 100 µM.

Q: And the TGI [40]?
A: The TGI was over 100 µM.

Q: And the TGI [41]?
A: The TGI was over 100 µM.

Q: And the TGI [42]?
A: The TGI was over 100 µM.

Q: What about the TGI [43] of the same compound?
A: Its TGI is over 100 µM.

Q: And the TGI [44]?
A: The TGI was over 100 µM.

Q: What about the TGI [45] of the same compound?
A: The TGI was over 100 µM.

Q: What about the TGI [46] of the same compound?
A: Its TGI is over 100 µM.

Q: What about the TGI [47] of the same compound?
A: Its TGI is over 100 µM.

Q: And the TGI [48]?
A: The TGI was over 100 µM.

Q: What about the TGI [49] of the same compound?
A: The TGI was over 100 µM.

Q: What about the TGI [50] of the same compound?
A: The TGI was over 100 µM.

Q: And the TGI [51]?
A: The TGI was over 100 µM.

Q: And the TGI [52]?
A: The TGI was over 100 µM.

Q: What about the TGI [53] of the same compound?
A: Its TGI is over 100 µM.

Q: What does the source list for `NCCC1([N+](=O)[O-])CCNCC1`?
A: TGI [54]: > 100 µM; TGI [1]: > 100 µM; TGI [2]: > 100 µM; TGI [3]: > 100 µM; TGI [55]: > 100 µM; TGI [56]: > 100 µM; TGI [4]: > 100 µM; TGI [5]: > 100 µM; TGI [57]: > 100 µM; TGI [9]: > 100 µM; TGI [10]: > 100 µM; TGI [11]: > 100 µM; TGI [12]: > 100 µM; TGI [13]: > 100 µM; TGI [14]: > 100 µM; TGI [15]: > 100 µM; TGI [58]: > 100 µM; TGI [16]: > 100 µM; TGI [17]: > 100 µM; TGI [59]: > 100 µM; TGI [18]: > 100 µM; TGI [20]: > 100 µM; TGI [22]: > 100 µM; TGI [24]: > 100 µM; TGI [60]: > 100 µM; TGI [61]: > 100 µM; TGI [62]: > 100 µM; TGI [63]: > 100 µM; TGI [25]: > 100 µM; TGI [26]: > 100 µM; TGI [27]: > 100 µM; TGI [28]: > 100 µM; TGI [29]: > 100 µM; TGI [64]: > 100 µM; TGI [30]: > 100 µM; TGI [31]: > 100 µM; TGI [32]: > 100 µM; TGI [33]: > 100 µM; TGI [65]: > 100 µM; TGI [34]: > 100 µM; TGI [35]: > 100 µM; TGI [36]: > 100 µM; TGI [37]: > 100 µM; TGI [38]: > 100 µM; TGI [39]: > 100 µM; TGI [40]: > 100 µM; TGI [41]: > 100 µM; TGI [42]: > 100 µM; TGI [43]: > 100 µM; TGI [44]: > 100 µM; TGI [45]: > 100 µM; TGI [47]: > 100 µM; TGI [48]: > 100 µM; TGI [66]: > 100 µM; TGI [49]: > 100 µM; TGI [50]: > 100 µM; TGI [51]: > 100 µM; TGI [52]: > 100 µM; TGI [67]: > 100 µM

Q: What does the source list for `CC(=O)C1=NN(c2ccccc2)C2(S1)SC(c1ccccc1)(c1ccccc1)c1ccccc12` (stereo unspecified)?
A: TGI [54]: > 100 µM; TGI [1]: > 100 µM; TGI [2]: > 100 µM; TGI [3]: > 100 µM; TGI [4]: > 100 µM; TGI [5]: > 100 µM; TGI [6]: > 100 µM; TGI [7]: > 100 µM; TGI [8]: 73.6 µM; TGI [9]: > 100 µM; TGI [10]: > 100 µM; TGI [11]: > 100 µM; TGI [12]: > 100 µM; TGI [13]: > 100 µM; TGI [68]: > 100 µM; TGI [14]: > 100 µM; TGI [15]: 46.1 µM; TGI [16]: > 100 µM; TGI [17]: > 100 µM; TGI [59]: > 100 µM; TGI [18]: > 100 µM; TGI [19]: > 100 µM; TGI [20]: > 100 µM; TGI [21]: > 100 µM; TGI [22]: > 100 µM; TGI [23]: > 100 µM; TGI [24]: > 100 µM; TGI [25]: > 100 µM; TGI [26]: > 100 µM; TGI [27]: > 100 µM; TGI [28]: > 100 µM; TGI [29]: 80.1 µM; TGI [30]: > 100 µM; TGI [31]: 79.6 µM; TGI [33]: > 100 µM; TGI [34]: > 100 µM; TGI [35]: 65.7 µM; TGI [36]: > 100 µM; TGI [37]: > 100 µM; TGI [38]: > 100 µM; TGI [39]: 78.7 µM; TGI [40]: > 100 µM; TGI [42]: > 100 µM; TGI [43]: > 100 µM; TGI [44]: > 100 µM; TGI [45]: 71.1 µM; TGI [46]: > 100 µM; TGI [47]: > 100 µM; TGI [48]: > 100 µM; TGI [49]: > 100 µM; TGI [50]: > 100 µM; TGI [51]: > 100 µM; TGI [52]: 48.7 µM; TGI [67]: > 100 µM

Reference: PubChem BioAssay (NCI)
